Results published in patent publication US8252811B2, “Indazoles, benzothiazoles, and benzoisothiazoles, and preparation and uses thereof” (Memory Pharmaceuticals Corporation, priority 2002, dated 2012).

Structure (SMILES)	melting point
Cl.O=C(N[C@H]1CN2CCC1CC2)c1ccc2scnc2c1	170 to 180 °C
Cl.O=C(N[C@@H]1CN2CCC1CC2)c1ccc2scnc2c1	166 to 176 °C
Cl.O=C(N[C@H]1CN2CCC1CC2)c1ccc2ncsc2c1	285 °C (dec.)
Cl.O=C(N[C@@H]1CN2CCC1CC2)c1cccc2cn[nH]c12	180 to 188 °C
